Laboratory results reported in ChEMBL document CHEMBL2086254, “Synthesis and identification of novel indolo[2,3-a]pyrimido[5,4-c]carbazoles as a new class of anti-cancer agents” (Eur J Med Chem, 2012).

What was measured:
Format in all cases: functional
TK-10 = assay: Cytotoxicity against human TK10 cells assessed as cell growth at 10 uM after 48 hrs by SRB assay relative to control; settings: TK-10, 48 h, read-out: Activity
OVCAR-8 = assay: Cytotoxicity against human OVCAR8 cells assessed as cell growth at 10 uM after 48 hrs by SRB assay relative to control; settings: OVCAR-8, 48 h, read-out: Activity
MDA-MB-435 = assay: Cytotoxicity against human MDA-MB-435 cells assessed cell growth at 10 uM after 48 hrs by SRB assay relative to control
SNB-19 = assay: Cytotoxicity against human SNB19 cells assessed as cell growth at 10 uM after 48 hrs by SRB assay relative to control; settings: SNB-19, 48 h, read-out: Activity
BT-549 = assay: Cytotoxicity against human BT549 cells assessed as cell growth at 10 uM after 48 hrs by SRB assay relative to control; settings: BT-549, 48 h, read-out: Activity
SK-OV-3 = assay: Cytotoxicity against human SKOV3 cells assessed as cell growth at 10 uM after 48 hrs by SRB assay relative to control; settings: SK-OV-3, 48 h, read-out: Activity
EKVX = assay: Cytotoxicity against human EKVX cells assessed as cell growth at 10 uM after 48 hrs by SRB assay relative to control; settings: read-out: Activity
HCT-116 = assay: Cytotoxicity against human HCT116 cells assessed as cell growth at 10 uM after 48 hrs by SRB assay relative to control; settings: HCT-116, 48 h, read-out: Activity
SF-268 = assay: Cytotoxicity against human SF268 cells assessed as cell growth at 10 uM after 48 hrs by SRB assay relative to control; settings: SF-268, 48 h, read-out: Activity
DU-145 = assay: Cytotoxicity against human DU145 cells assessed as cell growth at 10 uM after 48 hrs by SRB assay relative to control; settings: DU-145, 48 h, read-out: Activity
SW-620 = assay: Cytotoxicity against human SW620 cells assessed as cell growth at 10 uM after 48 hrs by SRB assay relative to control; settings: SW-620, 48 h, read-out: Activity
UO-31 = assay: Cytotoxicity against human UO31 cells assessed as cell growth at 10 uM after 48 hrs by SRB assay relative to control; settings: UO-31, 48 h, read-out: Activity
RXF 393 = assay: Cytotoxicity against human RXF393 cells assessed as cell growth at 10 uM after 48 hrs by SRB assay relative to control; settings: RXF 393, 48 h, read-out: Activity
LOX IMVI = assay: Cytotoxicity against human LOXIMVI cells assessed as cell growth at 10 uM after 48 hrs by SRB assay relative to control; settings: read-out: Activity
A498 = assay: Cytotoxicity against human A498 cells assessed as cell growth at 10 uM after 48 hrs by SRB assay relative to control; settings: A498, 48 h, read-out: Activity
NCI-H226 = assay: Cytotoxicity against human NCI-H226 cells assessed as cell growth at 10 uM after 48 hrs by SRB assay relative to control; settings: NCI-H226, 48 h, read-out: Activity
K562 = assay: Cytotoxicity against human K562 cells assessed as cell growth at 10 uM after 48 hrs by SRB assay relative to control; settings: K562, 48 h, read-out: Activity
ACHN = assay: Cytotoxicity against human ACHN cells assessed as cell growth at 10 uM after 48 hrs by SRB assay relative to control; settings: read-out: Activity
CAKI-1 = assay: Cytotoxicity against human Caki1 cells assessed as cell growth at 10 uM after 48 hrs by SRB assay relative to control; settings: CAKI-1, 48 h, read-out: Activity
SK-MEL-28 = assay: Cytotoxicity against human SK-MEL-28 cells assessed as cell growth at 10 uM after 48 hrs by SRB assay relative to control; settings: SK-MEL-28, 48 h, read-out: Activity
SF-295 = assay: Cytotoxicity against human SF295 cells assessed as cell growth at 10 uM after 48 hrs by SRB assay relative to control; settings: SF-295, 48 h, read-out: Activity
NCI/ADR-RES = assay: Cytotoxicity against human NCI/ADR-RES cells assessed as cell growth at 10 uM after 48 hrs by SRB assay relative to control; settings: read-out: Activity
UACC-62 = assay: Cytotoxicity against human UACC62 cells assessed as cell growth at 10 uM after 48 hrs by SRB assay relative to control; settings: UACC-62, 48 h, read-out: Activity
Malme-3M = assay: Cytotoxicity against human MALME-3M cells assessed as cell growth at 10 uM after 48 hrs by SRB assay relative to control; settings: read-out: Activity
[1] = Cytotoxicity against human Hs 578T cells assessed as cell growth at 10 uM after 48 hrs by SRB assay relative to control; settings: read-out: Activity
HCT-15 = assay: Cytotoxicity against human HCT15 cells assessed as cell growth at 10 uM after 48 hrs by SRB assay relative to control; settings: HCT-15, 48 h, read-out: Activity
A549 = assay: Cytotoxicity against human A549 cells assessed as cell growth at 10 uM after 48 hrs by SRB assay relative to control; settings: A549, 48 h, read-out: Activity
RPMI-8226 = assay: Cytotoxicity against human RPMI8226 cells assessed as cell growth at 10 uM after 48 hrs by SRB assay relative to control; settings: RPMI-8226, 48 h, read-out: Activity
NCI-H23 = assay: Cytotoxicity against human NCI-H23 cells assessed as cell growth at 10 uM after 48 hrs by SRB assay relative to control; settings: NCI-H23, 48 h, read-out: Activity
HOP-62 = assay: Cytotoxicity against human HOP62 cells assessed as cell growth at 10 uM after 48 hrs by SRB assay relative to control; settings: HOP-62, 48 h, read-out: Activity
SK-MEL-2 = assay: Cytotoxicity against human SK-MEL-2 cells assessed as cell growth at 10 uM after 48 hrs by SRB assay relative to control; settings: SK-MEL-2, 48 h, read-out: Activity
M14 = assay: Cytotoxicity against human M14 cells assessed as cell growth at 10 uM after 48 hrs by SRB assay relative to control; settings: M14, 48 h, read-out: Activity
MCF7 = assay: Cytotoxicity against human MCF7 cells assessed as cell growth at 10 uM after 48 hrs by SRB assay relative to control; settings: MCF7, 48 h, read-out: Activity
T47D = assay: Cytotoxicity against human T47D cells assessed as cell growth at 10 uM after 48 hrs by SRB assay relative to control; settings: read-out: Activity
UACC-257 = assay: Cytotoxicity against human UACC257 cells assessed as cell growth at 10 uM after 48 hrs by SRB assay relative to control; settings: UACC-257, 48 h, read-out: Activity
IGROV-1 = assay: Cytotoxicity against human IGROV1 cells assessed as cell growth at 10 uM after 48 hrs by SRB assay relative to control; settings: IGROV-1, 48 h, read-out: Activity

SMILES | growth at 10 µM (TK-10) [%] | growth at 10 µM (OVCAR-8) [%] | Activity (MDA-MB-435) [%] | growth at 10 µM (SNB-19) [%] | growth at 10 µM (BT-549) [%] | growth at 10 µM (SK-OV-3) [%] | growth at 10 µM (EKVX) [%] | growth at 10 µM (HCT-116) [%] | growth at 10 µM (SF-268) [%] | growth at 10 µM (DU-145) [%] | growth at 10 µM (SW-620) [%] | growth at 10 µM (UO-31) [%] | growth at 10 µM (RXF 393) [%] | growth at 10 µM (LOX IMVI) [%] | growth at 10 µM (A498) [%] | growth at 10 µM (NCI-H226) [%] | growth at 10 µM (K562) [%] | growth at 10 µM (ACHN) [%] | growth at 10 µM (CAKI-1) [%] | growth at 10 µM (SK-MEL-28) [%] | other results
Cn1cc(-c2c(-c3cn(C)c4ncccc34)nc(N)[nH]c2=O)c2ccccc21 | 113 | 95.8 | 98.77 | 111 | 95.8 | 98.3 | 96.3 | 98 | 101 | 107 | 97.5 | 79 | 124 | 99.9 | 85.7 | 84.2 | 95 | 87.6 | 90 | 11 | growth at 10 µM (SF-295): 98.2%; growth at 10 µM (NCI/ADR-RES): 101%; growth at 10 µM (UACC-62): 97%; growth at 10 µM (Malme-3M): 107%; growth at 10 µM [1]: 101%; growth at 10 µM (HCT-15): 103%; growth at 10 µM (A549): 102%; growth at 10 µM (RPMI-8226): 85.1%; growth at 10 µM (NCI-H23): 92.6%; growth at 10 µM (HOP-62): 91.5%; growth at 10 µM (SK-MEL-2): 105%; growth at 10 µM (M14): 103%; growth at 10 µM (MCF7): 86%; growth at 10 µM (T47D): 83%; growth at 10 µM (UACC-257): 103%; growth at 10 µM (IGROV-1): 87.1%
Cn1cc(-c2[nH]c(=S)[nH]c(=O)c2-c2cn(C)c3ccccc23)c2ccccc21 | 96.3 | 102 | 77.23 | 105 | 102 | 100 | 75 | 98.8 | 106 | 110 | 98 | 75.8 | 123 | 92.2 | 102 | 87.1 | 87 | 95.5 | 82.4 | 104 | growth at 10 µM (SF-295): 94.2%; growth at 10 µM (NCI/ADR-RES): 101%; growth at 10 µM (UACC-62): 93.4%; growth at 10 µM (Malme-3M): 99.5%; growth at 10 µM [1]: 103%; growth at 10 µM (HCT-15): 95.2%; growth at 10 µM (A549): 103%; growth at 10 µM (RPMI-8226): 91%; growth at 10 µM (NCI-H23): 94.2%; growth at 10 µM (HOP-62): 92.3%; growth at 10 µM (SK-MEL-2): 111%; growth at 10 µM (M14): 106%; growth at 10 µM (MCF7): 68.2%; growth at 10 µM (T47D): 98.3%; growth at 10 µM (UACC-257): 94.2%; growth at 10 µM (IGROV-1): 75.7%
Cn1c2ccccc2c2c3c(=O)[nH]c(N)nc3c3c4cccnc4n(C)c3c21 | 76.4 | 60.1 | 87.02 | 103 | 66 | 87.2 | 82.2 | 63 | 95.6 | 83.2 | 72 | 39.4 | 87.4 | 66 | 97.5 | 65 | 74 | 54.1 | 60.1 | 120 | growth at 10 µM (SF-295): 94.1%; growth at 10 µM (NCI/ADR-RES): 80.2%; growth at 10 µM (UACC-62): 87%; growth at 10 µM (Malme-3M): 119%; growth at 10 µM [1]: 128%; growth at 10 µM (HCT-15): 67.4%; growth at 10 µM (A549): 92.9%; growth at 10 µM (RPMI-8226): 64.4%; growth at 10 µM (NCI-H23): 86.3%; growth at 10 µM (HOP-62): 84.1%; growth at 10 µM (SK-MEL-2): 68.5%; growth at 10 µM (M14): 68.8%; growth at 10 µM (MCF7): 45.2%; growth at 10 µM (T47D): 48.7%; growth at 10 µM (UACC-257): 129%; growth at 10 µM (IGROV-1): 94.2%
Cn1cc(-c2nc(N)[nH]c(=O)c2-c2cn(C)c3ccccc23)c2ccccc21 | 82.3 | 97.5 | 109.77 | 111 | 102 | 95.8 | 105 | 99 | 109 | 122 | 94 | 64.6 | 131 | 118 | 112 | 91 | 111 | 98.5 | 94.6 | 118 | growth at 10 µM (SF-295): 90.7%; growth at 10 µM (NCI/ADR-RES): 108%; growth at 10 µM (UACC-62): 96.1%; growth at 10 µM (Malme-3M): 112%; growth at 10 µM [1]: 103%; growth at 10 µM (HCT-15): 117%; growth at 10 µM (A549): 101%; growth at 10 µM (RPMI-8226): 111%; growth at 10 µM (NCI-H23): 95%; growth at 10 µM (HOP-62): 85.3%; growth at 10 µM (SK-MEL-2): 102%; growth at 10 µM (M14): 97.6%; growth at 10 µM (MCF7): 77.6%; growth at 10 µM (T47D): 93.8%; growth at 10 µM (UACC-257): 95.6%; growth at 10 µM (IGROV-1): 68.9%
Cn1cc(-c2[nH]c(=O)[nH]c(=O)c2-c2cn(C)c3ccccc23)c2ccccc21 | 94.5 | 98.1 | 73.39 | 109 | 95.8 | 96.8 | 68.7 | 91.7 | 106 | 115 | 88.8 | 75.8 | 111 | 104 | 112 | 86.2 | 93.8 | 92.5 | 68.6 | 103 | growth at 10 µM (SF-295): 97.1%; growth at 10 µM (NCI/ADR-RES): 103%; growth at 10 µM (UACC-62): 88.3%; growth at 10 µM (Malme-3M): 98.6%; growth at 10 µM [1]: 105%; growth at 10 µM (HCT-15): 95%; growth at 10 µM (A549): 96.9%; growth at 10 µM (RPMI-8226): 98.9%; growth at 10 µM (NCI-H23): 91.4%; growth at 10 µM (HOP-62): 83.3%; growth at 10 µM (SK-MEL-2): 118%; growth at 10 µM (M14): 89.8%; growth at 10 µM (MCF7): 60.1%; growth at 10 µM (T47D): 82.4%; growth at 10 µM (UACC-257): 82.1%; growth at 10 µM (IGROV-1): 62.2%
